# Source: patent US12558344B2, “Composition for preventing or treating brain-nervous system diseases comprising rita or derivatives thereof” (priority 2019, dated 2026)
# Tests used:
# [1] = system: C57BL/6 mouse subjected to chronic restraint stress; assay: Open field test, anxiety-related behavior in CRS mouse; format: in vivo; settings: open field test 20 minutes, 10 mg/kg intraperitoneally, FIG. 3
# Method: (§1) An 8-week-old male C57BL/6 mouse was subjected to chronic restraint stress (CRS) using a restrainer from 10 AM to 4 PM daily for 7 days. RITA (10 mg/kg) was intraperitoneally injected using a 1-ml syringe at 9:30 AM for 10 days from 3 days before the stress experience. Specifically, to measure anxiety-related behavior, an open field test was performed. The degree of anxiety was measured by observing a staying rate during a staying time in the middle in a square with a size of 40×40 cm^2 for 20 minutes. In addition, to measure spatial memory ability, a Y-Maze test was performed. The degree of spatial memory ability was measured by measuring the rate (arm alteration) entering each passage while freely moving in a Y-shaped maze space composed of three passages for 6 minutes.
# [2] = system: C57BL/6 mouse subjected to chronic restraint stress; assay: Y-Maze test, spatial memory in CRS mouse; format: in vivo; settings: Y-Maze test 6 minutes (arm alteration), 10 mg/kg intraperitoneally, FIG. 4
# Method: as §1
# [3] = system: hippocampal neural stem cells; assay: Neural stem cell protection in chronic restraint stress (CRS) mouse, SOX2/Ki67 immunohistochemistry of hippocampus; format: in vivo; settings: 10 mg/kg intraperitoneally for 10 days, CRS 7 days, FIG. 2
# Method: An 8-week-old male C57BL/6 mouse was subjected to chronic restraint stress (CRS) using a restrainer from 10 AM to 4 PM daily for 7 days. RITA (10 mg/kg) was intraperitoneally injected using a 1-ml syringe at 9:30 AM for 10 days from 3 days before the stress experience. To confirm the number of hippocampal neural stem cells in the RITA-injected mouse, the control and the stress-experiencing mice were anesthetized by injecting the neuro-anesthetic Zoletil and the muscle anesthetic Rompun to isolate brain tissue. Afterward, the brain tissue was frozen with an optimal cutting temperature compound after fixing the brain with 4% paraformaldehyde (PFA). To perform immunohistochemistry, the frozen brain was cut in the coronal plane to a thickness of 40 μm, and then a neural stem cell indicator, SOX2, and a cell proliferation indicator, Ki67 protein, were labeled with Alexa488 or Alexa555 and stained. The number of fluorescence-expressing cells in the hippocampus of the stained brain was detected using a Confocal 780 microscope (Zeiss), and the result is shown in FIG. 2. As a control, oil, which is a medium in which RITA is dissolved, was injected.
# [4] = system: adult hippocampal neural stem cells (HCN cells); assay: Cell death assay (Hoechst 33342/PI) of stress hormone (CORT)-induced death of adult hippocampal neural stem cells; format: cell-based, rat; settings: 50 nM RITA (3 h pre-treatment, then with 200 μM CORT), 48 hours, FIG. 1
# Method: First, adult hippocampal neural stem cells (HCN cells; hereinafter, referred to as “HCN”) were isolated from an 8-week-old female Sprague-Dawley rat (SD rat). Afterward, the isolated hippocampal neural stem cells were incubated using a serum-free medium containing Dulbecco's modified Eagle's medium (DMEM)/F-12 to which N2 and basic fibroblast growth factor (bFGF; PeproTech) were added in a 37° C. incubator. The cells were subcultured every 3 or 4 days. The subcultured neural stem cells were put into a 96-well plate at 1.5×10^5 cells/ml, 50 nM RITA was treated together with 200 μM corticosterone (CORT), and cell death was confirmed after 48 hours. Before CORT treatment, 50 nM RITA was pre-treated for 3 hours and then treated again along with CORT. For cell death assay, the cells were stained with Hoechst 33342 (Invitrogen) and propidium iodide (PI; Sigma) and photographed by a fluorescence microscope (Axiovert 40 CFL; Carl Zeiss), and the percentage of cell death was calculated by the following cell death (%) equation. Cell death (%)=(the number of PI[red]−positive cells/the number of Hoechst [blue]−positive cells)×100
smiles,measurement,setting,value
"OCc1ccc(-c2ccc(-c3ccc(CO)s3)o2)s1 [RITA, 2,5-bis[5-hydroxymethyl-2-thienyl] furan]",anxiety disorder-related behavior caused by stress experience,[1],prevented
same,spatial memory disability caused by stress experience,[2],prevented
same,number of cells expressing Ki67 (cell proliferation indicator) decreased by stress,[3],considerably increased compared to the control
same,number of cells expressing SOX2 (stem cell indicator) decreased by stress,[3],considerably increased compared to the control
same,death of neural stem cells caused by a stress hormone,[4],inhibits the death of neural stem cells
